According to the supplement of paper PMC10307832:

Columns and labels:
Assay in all cases: relative viability (nuclei count vs DMSO), 5 days (fraction); higher = more cells survive
Bortezomib + Linsitinib = compound: CC(C)C[C@H](NC(=O)[C@H](Cc1ccccc1)NC(=O)c1cnccn1)B(O)O [Bortezomib] + C[C@]1(O)C[C@@H](c2nc(-c3ccc4ccc(-c5ccccc5)nc4c3)c3c(N)nccn32)C1 [Linsitinib] (partner 1 µM)
Method in brief: (§1)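 After 5 days of treatment, lung cancer cells in 1536-well plates were fixed and stained in a single step (final 0.05% Triton X-100, 1% formaldehyde, 1 ug/ml Hoechst) and their nuclei counted on 4× images. Treatment had been applied by pin tool the day after seeding as one drug alone or as a fixed anchor-drug dose with five library-drug doses (not always all listed) in √10 steps. Relative viability is the nuclei count of treated wells divided by that of vehicle wells, and values are medians of duplicate plates.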

[1] = compound: CC1=CC(=NN1)NC2=CC(=NC(=N2)/C=C/C3=CC=CC=C3)N4CCN(CC4)C + NC(=O)Nc1cc(-c2cccc(F)c2)sc1C(=O)N[C@H]1CCCNC1 [AZD7762] (partner 0.2 µM)
Method in brief: as §1

Obatoclax + Foretinib = compound: COC1=CC(c2cc3ccccc3[nH]2)=N/C1=C\c1[nH]c(C)cc1C [Obatoclax] + COc1cc2c(Oc3ccc(NC(=O)C4(C(=O)Nc5ccc(F)cc5)CC4)cc3F)ccnc2cc1OCCCN1CCOCC1 [Foretinib] (partner 0.25 µM)
Method in brief: as §1

Obatoclax + Alpelisib = compound: COC1=CC(c2cc3ccccc3[nH]2)=N/C1=C\c1[nH]c(C)cc1C [Obatoclax] + Cc1nc(NC(=O)N2CCC[C@H]2C(N)=O)sc1-c1ccnc(C(C)(C)C(F)(F)F)c1 [Alpelisib] (partner 2 µM)
Method in brief: as §1

| Cell Line | relative viability (Bortezomib + Linsitinib; first compound 0.0002 µM) | relative viability (Bortezomib + Linsitinib; first compound 0.000632 µM) | relative viability (Bortezomib + Linsitinib; first compound 0.002 µM) | relative viability (Bortezomib + Linsitinib; first compound 0.006325 µM) | relative viability (Bortezomib + Linsitinib; first compound 0.02 µM) | relative viability ([1]; first compound 0.08 µM) | relative viability ([1]; first compound 0.253 µM) | relative viability ([1]; first compound 0.8 µM) | relative viability ([1]; first compound 2.53 µM) | relative viability ([1]; first compound 8 µM) | relative viability (Obatoclax + Foretinib; first compound 0.01 µM) | relative viability (Obatoclax + Foretinib; first compound 0.03162 µM) | relative viability (Obatoclax + Foretinib; first compound 0.1 µM) | relative viability (Obatoclax + Foretinib; first compound 0.3162 µM) | relative viability (Obatoclax + Foretinib; first compound 1 µM) | relative viability (Obatoclax + Alpelisib; first compound 0.01 µM) | relative viability (Obatoclax + Alpelisib; first compound 0.03162 µM) | relative viability (Obatoclax + Alpelisib; first compound 0.1 µM) | relative viability (Obatoclax + Alpelisib; first compound 0.3162 µM) | relative viability (Obatoclax + Alpelisib; first compound 1 µM) |
| --- | --- | --- | --- | --- | --- | --- | --- | --- | --- | --- | --- | --- | --- | --- | --- | --- | --- | --- | --- | --- |
| NCI-H1944 | 1.13 | 1.06 | 1.06 | 1.23 | 0.627 | 0.539 | 0.524 | 0.469 | 0.229 | 0.117 | 0.877 | 0.772 | 0.894 | 0.942 | 0.933 | 0.808 | 0.817 | 0.859 | 0.89 | 0.839 |
| NCI-H1975 | 0.965 | 0.964 | 0.189 | 0.144 | 0.125 | 0.692 | 0.872 | 0.746 | 0.429 | 0.174 | 0.973 | 1.02 | – | 0.854 | 0.296 | 0.629 | 0.666 | 0.663 | 0.476 | 0.182 |
| NCI-H1993 | 0.683 | 0.766 | 0.733 | 0.499 | 0.58 | 0.712 | 0.622 | 0.775 | 0.33 | 0.3 | 0.766 | 0.757 | 0.807 | 0.771 | 0.876 | 0.704 | 0.648 | 0.682 | 0.667 | 0.6 |
| NCI-H2085 | 0.901 | 0.901 | 0.726 | 0.262 | 0.145 | 0.95 | 1.09 | 0.882 | 0.272 | 0.186 | 0.761 | 0.998 | 1.14 | 0.795 | 0.531 | 0.89 | 0.925 | 0.98 | 0.57 | 0.29 |
| NCI-H2087 | 0.944 | 1.15 | 0.764 | 0.11 | 0.215 | 1.27 | 1.4 | 1.39 | 0.703 | 0.176 | 1.21 | 1.05 | 1.1 | 0.324 | 0.465 | 0.738 | 1.18 | 0.953 | 0.854 | 0.354 |
| NCI-H2126 | 0.74 | 0.711 | 0.68 | 0.738 | 0.374 | 0.982 | 1.06 | 1.02 | 0.825 | 0.873 | 1.11 | 1.1 | 1.12 | 1.16 | 1.13 | 0.779 | 0.752 | 0.743 | 0.769 | 0.714 |
| NCI-H2347 | 0.93 | 0.92 | 0.848 | 0.29 | 0.325 | 0.544 | 0.788 | 0.911 | 0.484 | 0.32 | 1.09 | 0.831 | 0.918 | – | 1.04 | 1.02 | 0.994 | 0.841 | 1.01 | 0.93 |
| NCI-H2405 | 0.868 | – | 0.32 | 0.147 | 0.169 | 0.742 | 0.766 | 0.768 | 0.357 | 0.118 | 1.09 | 1.06 | – | 1.07 | 1.13 | 0.806 | 0.891 | – | 0.777 | 0.711 |
| NCI-H3122 | 1.01 | 1.04 | 1.09 | 0.606 | 0.179 | 0.963 | 0.943 | 1 | 0.944 | 0.408 | 0.97 | 0.783 | 0.912 | 0.925 | 0.947 | 0.787 | 0.812 | 0.792 | 0.707 | 0.751 |
| PC-3 [JPC-3] | 0.989 | 0.929 | 0.87 | 0.916 | 0.186 | 0.709 | 0.805 | 0.764 | 0.554 | 0.303 | 1 | 1.03 | 1.01 | 1.01 | 0.916 | 0.968 | 1.01 | 0.999 | 0.975 | 1.1 |
| PC-14 | 0.941 | 0.917 | 0.974 | 0.152 | 0.0932 | 0.346 | 0.446 | 0.354 | 0.28 | 0.0653 | 0.858 | 0.945 | 0.917 | 0.872 | 0.661 | 0.875 | 0.92 | 0.892 | 0.775 | 0.632 |
| RERF-LC-KJ | 0.859 | – | 0.908 | 0.366 | 0.203 | 0.854 | 1.05 | 0.915 | 0.651 | 0.232 | 0.823 | 0.883 | 0.862 | 0.792 | 0.844 | 0.754 | 0.811 | 0.805 | 0.803 | 0.775 |
